According to patent US8097252B2, “Methods and compositions for administering therapeutic and diagnostic agents” (Immunomedics, Inc., priority 2003, dated 2012):
Starred links: 1 amine or outer side, 2 acyl side, 3 side chain; linkers in the order of their positions; H or OH if unused. Non-standard residues stand in square brackets, D forms with d. Residues, ends and D or L forms follow the SMILES beside them. Groups on a side chain read outwards from the residue. *: point of attachment. DTPA = O=C(O)CN(CCN(CC(=O)O)CC(=O)O)CCN(CC(=O)O)CC(=O)*; NH(2-(imidazol-4-yl)ethyl) = c1ncc(CCN*)[nH]1; Suc = O=C(CCC(=O)[*:2])[*:1]

What was measured:
[1] = Stability of 111In IMP 272 in fresh human serum; format: in vitro ADME; conditions: 37° C.
Description: (§1) ^111InCl3 (30.4 μL) was added to 500 μL of DI H2O. This solution was added to the prepared vial of IMP 272 and allowed to sit for approximately 20 minutes at room temperature. An additional 600 μL of cold In Acetate Buffer (1.0×10^−4M InCl3, 0.5M NaOAc, pH 6.5) was then added to the same vial and allowed to sit for an additional 45 minutes. The total volume was 1130 μL with a molar quantity of […] of IMP 272 yielding a concentration of 8.777×10^−6M. After the labeling was completed, the peptide was tested for stability in fresh human and nude mouse serum over 24 hrs. The peptide was also tested for binding to humanized antibodies; m679×hMN14, and, m734×hMN14.
^111In IMP 272, 60 μL, was added to 540 μL fresh human serum. This was vortexed and placed under a constant temperature of 37° C. The peptide concentration for this mixture was 8.777×10^−7M.

[2] = Stability of 111In IMP 272 in fresh nude mouse serum; format: in vitro ADME; conditions: 37° C., 24 hr
Description: as §1
^111In IMP 272, 44 μL, was added to 400 μl fresh nude mouse serum. This was vortexed and placed under a constant temperature of 37° C. The peptide concentration for this mixture was 8.698×10^−7M.

[3] = Biodistribution in nude mice bearing GW-39 xenografts (lock and chase); format: in vivo; conditions: mouse, tumor (GW-39 xenograft), iv, 76 ng, total radioactivity, 3 hrs post-IMP-272, assumption, read-out: amount in tumor
Description: To study the half-life of a pretargeted defined chemical substance (DCS), known as IMP-272 on a tumor, the following experiment is performed in nude mice bearing GW-39 human colorectal cancer xenografts. Animals receive three injections as follows: first injection of anti-CEA BS1.5HP diabody (hMN-14×679) followed 24 hours later with IMP-272, which is followed 3 hours later by the anti-In-DTPA F(ab′)2 antibody, 734. BS1.5HP is labeled with ^125I and the IMP-272 is labeled with ^111In. The synthesis and use of this diabody is disclosed in Clin. Cancer Res. 9:3886s-3896s (2003), and is herein incorporated in its entirety by reference. Known standard molecular biology methods were used to prepare the BS1.5HP
To test for maximum cross-linking of peptide on the surface of the tumor, the total protein dose of 734 F(ab′)2 injected ranges from 10 μg to 100 μg. Four groups of mice are administered 10 μCi ^125I-BS1.5HP (27 μg, 5.0×10^−10 moles) followed 24 hours later by 25 μCi ^111In-IMP-272 (5.0×10^−11 moles) for a bispecific:IMP-272 ratio of 10:1. IMP-272 is administered 3 hours before the administration of 734 F(ab′)2 to target the tumor and clear from the blood. […]
At the specified necropsy time, 5 animals are anesthetized, bled by cardiac puncture followed by cervical dislocation. […] Tissues is counted in a calibrated gamma counter for ^111In and ^125I. […]

B-cell lymphoma = assay: Therapy of B-cell lymphoma patient with internalization by cross-linking; format: in vivo
Description: A patient having B-cell lymphoma with extensive node involvement is infused intraveneously with a sterile, pyrogen-free solution containing a target dose of bispecific hA20Fab-679scFv prepared as described in U.S. application Ser. Nos. 09/337,756 and 60/360,229. After 24 hours, the patient then is infused intraveneously with a sterile, pyrogen-free PBS solution that contains a therapeutic dose of DTPA-Gln-Ala-Lys(HSG)-D-[I-131Tyr]-Lys(HSG)-NH2. After 24 hours the patient then is intraveneously infused with 50 mg of sterile, pyrogen-free PBS solution of bispecific hLL1IgG[734scFv]. […] This administration is illustrated schematically in FIG. 6-9.

stability in human serum (conclusion) [1] | peptide state after incubation in human serum ([1]; 1 hour) | binding to HSG after incubation in human serum ([1]; 24 hr) | binding to one of the two HSG's compromised ([1]; 24 hr, size exclusion HPLC) | stability in mouse serum [2] | tissue uptake at 3 h [3] | Compound | size of the lymphoma-involved nodes (B-cell lymphoma; CAT scans over the next few months) | localization and retention of I-131 in lymphoma involved nodes (B-cell lymphoma; radioimmunodetection)
partially metabolized | intact | lost some of the binding to HSG | about 50% | stable | ~20 %ID/g | C[C@H](NC(=O)[C@H](CCC(N)=O)NC(=O)CN(CCN(CCN(CC(=O)O)CC(=O)O)CC(=O)O)CC(=O)O)C(=O)N[C@@H](CCCCNC(=O)CNC(=O)CCC(=O)NCCc1c[nH]cn1)C(=O)N[C@H](Cc1ccc(O)cc1)C(=O)N[C@@H](CCCCNC(=O)CNC(=O)CCC(=O)NCCc1c[nH]cn1)C(N)=O (111In complex, metal not drawn) [IMP 272, DTPA-Gln-Ala-Lys(HSG)-D-Tyr-Lys(HSG)-NH2] ({DTPA}-QAK([Gly-Suc-NH(2-(imidazol-4-yl)ethyl)])[dY]K([Gly-Suc-NH(2-(imidazol-4-yl)ethyl)])-NH2) |  | 
 |  |  |  |  |  | DTPA-Gln-Ala-Lys(HSG)-D-[I-131Tyr]-Lys(HSG)-NH2 | significant reduction | intensive localization and long retention
